{"source": "ChEMBL document CHEMBL1268830", "about": "“Efficient synthesis and biological evaluation of some 2,4-diamino-furo[2,3-d]pyrimidine derivatives” (Bioorg Med Chem Lett, 2010)", "key": {"[1]": {"assay": "Cytotoxicity against human sSPC-A1 cells after 48 hrs by MTT assay", "assay_type": "functional, cell-based", "details": "sSPC-A1, 48 h"}, "[2]": {"tested_on": "A549", "assay": "Cytotoxicity against human A549 cells after 48 hrs by MTT assay", "assay_type": "functional, cell-based", "details": "A549, 48 h"}}, "data": [{"smiles": "CCOC(=O)c1c(C)oc2nc(Nc3ccccc3)nc(N3CCN(C)CC3)c12", "values": [{"measurement": "IC50", "setting": "[1]", "result": 26.1, "unit": "µM"}, {"measurement": "IC50", "setting": "[2]", "result": 0.8, "unit": "µM"}]}, {"smiles": "CCCCNc1nc(Nc2ccccc2)nc2oc(C)c(C(=O)OCC)c12", "values": [{"measurement": "IC50", "setting": "[1]", "result": 50.2, "unit": "µM"}, {"measurement": "IC50", "setting": "[2]", "result": 2.7, "unit": "µM"}]}, {"smiles": "CCOC(=O)c1c(C)oc2nc(Nc3ccccc3)nc(NC(C)C)c12", "values": [{"measurement": "IC50", "setting": "[2]", "result": 21.5, "unit": "µM"}]}, {"smiles": "CCOC(=O)c1c(C)oc2nc(Nc3ccccc3)nc(NCCO)c12", "values": [{"measurement": "IC50", "setting": "[1]", "result": 24.2, "unit": "µM"}, {"measurement": "IC50", "setting": "[2]", "result": 13, "unit": "µM"}]}, {"smiles": "CCOC(=O)c1c(C)oc2nc(Nc3ccccc3)nc(N3CCOCC3)c12", "values": [{"measurement": "IC50", "setting": "[1]", "result": 69, "unit": "µM"}, {"measurement": "IC50", "setting": "[2]", "result": 15.2, "unit": "µM"}]}, {"smiles": "CCCCNc1nc(Nc2cccc(C)c2)nc2oc(C)c(C(=O)OCC)c12", "values": [{"measurement": "IC50", "setting": "[2]", "result": 9, "unit": "µM"}]}, {"smiles": "CCOC(=O)c1c(C)oc2nc(Nc3cccc(C)c3)nc(N3CCOCC3)c12", "values": [{"measurement": "IC50", "setting": "[1]", "result": 70.8, "unit": "µM"}, {"measurement": "IC50", "setting": "[2]", "result": 14, "unit": "µM"}]}, {"smiles": "CCOC(=O)c1c(C)oc2nc(Nc3cccc(C)c3)nc(N3CCN(C)CC3)c12", "values": [{"measurement": "IC50", "setting": "[1]", "result": 18.2, "unit": "µM"}, {"measurement": "IC50", "setting": "[2]", "result": 5.5, "unit": "µM"}]}, {"smiles": "CCOC(=O)c1c(C)oc2nc(Nc3cccc(C)c3)nc(N(CC)CC)c12", "values": [{"measurement": "IC50", "setting": "[2]", "result": 8.8, "unit": "µM"}]}, {"smiles": "CCOC(=O)c1c(C)oc2nc(Nc3cccc(C)c3)nc(NC(C)C)c12", "values": [{"measurement": "IC50", "setting": "[1]", "result": 46.3, "unit": "µM"}, {"measurement": "IC50", "setting": "[2]", "result": 8.6, "unit": "µM"}]}]}
